Among the data in patent US20060115815A1 (priority 2002, published 2006) are EC50 values, retold here.

Broadly, the EC50 is the concentration giving half of the maximal effect.

Where “and” joins values, the source holds several entries; their conditions need not be identical. Equal entries are not always repeated.

This test deals with wild-type HIV-1 strain IIIB. Put plainly: microbe, parasite or virus in culture. It is filed as cell-based. To be noted: read-out: EC50.
In the case of `CCOC(=O)C(CC)OP(=O)(COc1ccc(CC(NC(=O)OC2COC3OCCC23)C(O)CN(CC(C)C)S(=O)(=O)c2ccc(OC)cc2)cc1)Oc1ccccc1` [drawing 659 R1=OPh R2=(S)Hba-Et], the EC50 is less than 50 nM.
For the compound `CCOC(=O)C(C)OP(=O)(COc1ccc(CC(NC(=O)OC2COC3OCCC23)C(O)CN(CC(C)C)S(=O)(=O)c2ccc(OC)cc2)cc1)Oc1ccccc1` (stereo not shown) [drawing 661 R1=OPh R2=Lac-Et], the EC50 fell in the range of 50 to 500 nM.
In the case of `CCOC(=O)C(CC)NP(=O)(COc1ccc(C[C@H](NC(=O)O[C@H]2CO[C@H]3OCC[C@H]32)[C@H](O)CN(CC(C)C)S(=O)(=O)c2ccc(OC)cc2)cc1)Oc1ccccc1` (single isomer, unassigned) [drawing 657 R1=OPh R2=Aba-Et], the EC50 is < 50 nM and 50 to 500 nM.
On to `CCOC(=O)[C@H](C)OP(=O)(COc1ccc(C[C@H](NC(=O)O[C@H]2CO[C@H]3OCC[C@H]32)[C@@H](CN(CC(C)C)S(=O)(=O)c2ccc(OC)cc2)OC(=O)[C@H](N)C(C)C)cc1)Oc1ccccc1` (stereo partly shown), for which the EC50 was in the range of 50 to 500 nM.
As to `CCOC(=O)[C@H](C)OP(=O)(COc1ccc(C[C@H](NC(=O)O[C@H]2CO[C@H]3OCC[C@H]32)[C@H](O)CN(CC(C)C)S(=O)(=O)c2ccc(COC(=O)[C@H](N)C(C)C)cc2)cc1)Oc1ccccc1` (stereo partly shown), the EC50 lay in the range of 50 to 500 nM.
Next, `CC(C)CN(C[C@@H](O)[C@H](Cc1ccc(OCP(=O)(OCc2ccccc2)OC(C)C(=O)OCc2ccccc2)cc1)NC(=O)O[C@H]1CO[C@H]2OCC[C@H]21)S(=O)(=O)c1ccc(OCc2ccccc2)cc1` (stereo partly shown): more than 5000 nM; `CCOC(=O)[C@H](C)OP(=O)(COc1ccc(C[C@H](NC(=O)O[C@H]2CO[C@H]3OCC[C@H]32)[C@H](O)CN(CC(C)C)S(=O)(=O)c2ccc(OC)cc2)cc1)Oc1cccc(CN(C)CCOC)c1` (stereo partly drawn) [drawing 660 R1=OPh-m-CH2NMeC2OM R2=(S)Lac-Et]: 50 to 500 nM; `CCOC(=O)[C@H](C)OP(=O)(COc1ccc(C[C@H](NC(=O)O[C@H]2CO[C@H]3OCC[C@H]32)[C@H](O)CN(CC(C)C)S(=O)(=O)c2ccc(OC)cc2)cc1)ON(C)C` (stereo partly drawn) [drawing 660 R1=ONMe2 R2=(S)Lac-Et]: 50 to 500 nM.
Next, `COc1ccc(S(=O)(=O)N(CC(C)C)C[C@@H](O)[C@H](Cc2ccc(OCP(=O)(Oc3ccccc3)OC(C)C(=O)OCCN3CCOCC3)cc2)NC(=O)O[C@H]2CO[C@H]3OCC[C@H]32)cc1` (stereo partly shown) [drawing 658 R1=OPh R2=Lac-EtMor]: more than 5000 nM; `CCOC(=O)[C@H](C)OP(=O)(COc1ccc(C[C@H](NC(=O)O[C@H]2CO[C@H]3OCC[C@H]32)[C@H](O)CN(CC(C)C)S(=O)(=O)c2ccc(OC)cc2)cc1)Oc1cccc(CN2CCCCC2)c1` (stereo partly drawn) [drawing 660 R1=OPh-m-CH2Pip R2=(S)Lac-Et]: 50 to 500 nM.
In the case of `CCOC(=O)C(CC)OP(=O)(COc1ccc(CC(NC(=O)OC2COC3OCCC23)C(O)CN(CC(C)C)S(=O)(=O)c2ccc(OC)cc2)cc1)Oc1ccccc1` [drawing 659 R1=OPh R2=(R)Hba-Et], the EC50 is less than 50 nM.
Consider `COc1ccc(S(=O)(=O)N(CC(C)C)C[C@@H](O)[C@H](Cc2ccc(OCP(=O)(Oc3ccccc3)OC(C)C(=O)OCCCN3CCOCC3)cc2)NC(=O)O[C@H]2CO[C@H]3OCC[C@H]32)cc1` (stereo partly shown) [drawing 658 R1=OPh R2=Lac-PrMor], for which the EC50 is more than 5000 nM.
For `CCOC(=O)C(CC)NP(=O)(CCNCc1ccc(C[C@H](NC(=O)O[C@H]2CO[C@H]3OCC[C@H]32)[C@H](O)CN(CC(C)C)S(=O)(=O)c2ccc(OC)cc2)cc1)Oc1ccccc1` (stereo partly shown) [drawing 662 R1=Ph R2=Aba-Et], the EC50 lay in the range of 500 to 5000 nM.
Consider `CCOP(=O)(O)COc1ccc(CC(NC(=O)OC2COC3OCCC23)C(O)CN(CC(C)C)S(=O)(=O)c2ccc(OC)cc2)cc1` (stereo not shown) [drawing 651 R1=OH R2=OEt], for which the EC50 was 50 to 500 nM.
In the case of `CCOC(=O)C(C)OP(=O)(CCNc1ccc(CC(NC(=O)OC2COC3OCCC23)C(O)CN(CC(C)C)S(=O)(=O)c2ccc(OC)cc2)cc1)Oc1ccccc1` (single isomer, unassigned) [drawing 706], the EC50 was less than 50 nM.
For `CCOC(=O)C(C)OP(=O)(Cc1ccc(NCC(NC(=O)OC2COC3OCCC23)C(O)CN(CC(C)C)S(=O)(=O)c2ccc(OC)cc2)cc1)Oc1ccccc1` (stereo not shown), the EC50 is less than 50 nM.
As for `CCCCOC(=O)C(CC)NP(=O)(COc1ccc(CC(NC(=O)OC2COC3OCCC23)C(O)CN(CC(C)C)S(=O)(=O)c2ccc(OC)cc2)cc1)Oc1ccccc1` (single isomer, unassigned) [drawing 657 R1=OPh R2=Aba-Bu], the EC50 is < 50 nM and 50 to 500 nM.
Turning to `CCOC(=O)COP(=O)(COc1ccc(CC(NC(=O)OC2COC3OCCC23)C(O)CN(CC(C)C)S(=O)(=O)c2ccc(OC)cc2)cc1)Oc1ccccc1` (stereo not shown) [drawing 658 R1=OPh R2=Glc-Et], the EC50 was less than 50 nM.
In the case of `CC(C)CN(C[C@@H](O)[C@H](Cc1ccc(OCP(=O)(O)O)cc1)NC(=O)O[C@H]1CO[C@H]2OCC[C@H]21)S(=O)(=O)c1ccc(O)cc1` [drawing 652 R1=OH R2=OH], the EC50 lay within 500 to 5000 nM.
Regarding `CCOC(=O)[C@H](C)OP(=O)(COc1ccc(C[C@H](NC(=O)O[C@H]2CO[C@H]3OCC[C@H]32)[C@H](O)CN(CC(C)C)S(=O)(=O)c2ccc(OC)cc2)cc1)ON1CCCCC1` (stereo partly drawn) [drawing 660 R1=OPip R2=(S)Lac-Et], the EC50 was in the range of 500 to 5000 nM.
In the case of `CC(C)CN(CC(O)C(Cc1ccc(OCP(=O)(OCc2ccccc2)OCc2ccccc2)cc1)NC(=O)OC1COC2OCCC12)S(=O)(=O)c1ccc(C=O)cc1` (stereo not shown), the EC50 is less than 50 nM.
On to `CCOC(=O)C(Cc1ccccc1)NP(=O)(COc1ccc(CC(NC(=O)OC2COC3OCCC23)C(O)CN(CC(C)C)S(=O)(=O)c2ccc(OC)cc2)cc1)NC(Cc1ccccc1)C(=O)OCC` (stereo not shown) [drawing 655 R1=Phe-Et R2=Phe-Et], for which the concentration for a half-maximal effect (EC50) is less than 50 nM.
As to `CCOC(=O)C(C)OP(=O)(COc1ccc(CC(NC(=O)OC2COC3OCCC23)C(O)CN(CC(C)C)S(=O)(=O)c2ccc(OC)cc2)cc1)OCC` (stereo not shown) [drawing 658 R1=OEt R2=Lac-Et], the EC50 is 50 to 500 nM.
On to `COc1ccc(S(=O)(=O)N(CC(C)C)C[C@@H](O)[C@H](Cc2ccc(OCP(=O)(Oc3ccccc3)O[C@@H](C)C(=O)OCCN3CCCCC3)cc2)NC(=O)O[C@H]2CO[C@H]3OCC[C@H]32)cc1` (stereo partly drawn) [drawing 659 R1=OPh R2=(S)Lac-EtPip], for which the EC50 was 50 to 500 nM.
As to `CCOC(=O)[C@H](C)OP(=O)(COc1ccc(C[C@H](NC(=O)O[C@H]2CO[C@H]3OCC[C@H]32)[C@H](O)CN(CC(C)C)S(=O)(=O)c2ccc(OC)cc2)cc1)ON1CCOCC1` (stereo partly drawn) [drawing 660 R1=OMor R2=(S)Lac-Et], the concentration giving a half-maximal response (EC50) is more than 5000 nM.
On to `CCOC(=O)C(C)OP(=O)(COc1ccc(C[C@H](NC(=O)O[C@H]2CO[C@H]3OCC[C@H]32)[C@H](O)CN(CC(C)C)S(=O)(=O)c2ccc(OCc3ccccc3)cc2)cc1)Oc1ccccc1` (stereo partly shown), for which the EC50 is 50 to 500 nM.
For the compound `CCOC(=O)C(C)OP(=O)(CN1CC=C(CC(NC(=O)OC2COC3OCCC23)C(O)CN(CC(C)C)S(=O)(=O)c2ccc(OC)cc2)CC1)Oc1ccccc1` (stereo not shown), the EC50 was more than 5000 nM.
As to `COc1ccc(S(=O)(=O)N(CC(C)C)C[C@@H](OP(=O)(O)O)[C@H](Cc2ccc(OCP(=O)(Oc3ccccc3)O[C@@H](C)C(=O)OC(C)C)cc2)NC(=O)O[C@H]2CO[C@H]3OCC[C@H]32)cc1` (stereo partly shown), the EC50 is less than 50 nM.
As to `CCOC(=O)C(C)OP(=O)(COc1ccc(CC(NC(=O)OC2COC3OCCC23)C(O)CN(CC(C)C)S(=O)(=O)c2ccc(CN3CCOCC3)cc2)cc1)Oc1ccccc1` (stereo not shown), the EC50 lay within 50 to 500 nM.
Next, `CCCCOC(=O)CNP(=O)(COc1ccc(C[C@H](NC(=O)O[C@H]2CO[C@H]3OCC[C@H]32)[C@H](O)CN(CC(C)C)S(=O)(=O)c2ccc(OC)cc2)cc1)Oc1ccccc1` (stereo partly shown) [drawing 657 R1=OPh R2=Gly-Ru]: 50 to 500 nM; `CCOC(=O)[C@H](C)OP(=O)(COc1ccc(C[C@H](NC(=O)O[C@H]2CO[C@H]3OCC[C@H]32)[C@H](O)CN(CC(C)C)S(=O)(=O)c2ccc(OC)cc2)cc1)Oc1cccc(CN2CCOCC2)c1` (stereo partly drawn) [drawing 660 R1=OPh-m-CH2Mor R2=(S)Lac-Et]: 50 to 500 nM; `CCOC(=O)C(C)OP(=O)(COc1ccc(CC(NC(=O)OC2COC3OCCC23)C(O)CN(CC(C)C)S(=O)(=O)c2ccc(OC)cc2)cc1)Oc1ccccc1CC(C)C` [drawing 660 R1=OPh—o-i-But R2=(S)Lac-Et]: less than 50 nM.
In the case of `CCOC(=O)C(C)OP(=O)(COc1ccc(CC(NC(=O)OC2COC3OCCC23)C(O)CN(CC(C)C)S(=O)(=O)c2ccc(OC)cc2)cc1)Oc1cccc(C(=O)O)c1` [drawing 660 R1=OPh-m-COOH R2=(S)Lac-Et], the EC50 lay within 50 to 500 nM.
As to `CCOC(=O)C(CC)OP(=O)(COc1ccc(CC(NC(=O)OC2COC3OCCC23)C(O)CN(CC(C)C)S(=O)(=O)c2ccc(OC)cc2)cc1)Oc1ccccc1` (mixture of isomers) [drawing 659 R1=OPh R2=mix-Hba-Et], the EC50 is less than 50 nM.
As to `COc1ccc(S(=O)(=O)N(CC(C)C)C[C@@H](O)[C@H](Cc2ccc(OCP(=O)(Oc3ccccc3)OC(C)C(=O)OC(C)C)cc2)NC(=O)O[C@H]2CO[C@H]3OCC[C@H]32)cc1` (single isomer, unassigned) [drawing 658 R1=OPh R2=Lac-iPr], the EC50 was less than 50 nM.
As to `COc1ccc(S(=O)(=O)N(CC(C)C)C[C@@H](O)[C@H](Cc2ccc(OCP(=O)(Oc3ccccc3)O[C@@H](C)C(=O)OCCCN3CCOCC3)cc2)NC(=O)O[C@H]2CO[C@H]3OCC[C@H]32)cc1` (stereo partly drawn) [drawing 659 R1=OPh R2=(S)Lac-PrMor], the concentration for a half-maximal effect (EC50) is more than 5000 nM.
Regarding `COc1ccc(S(=O)(=O)N(CC(C)C)C[C@@H](O)[C@H](Cc2ccc(OCP(=O)(Oc3ccccc3)O[C@@H](C)C(=O)OCCN3CCOCC3)cc2)NC(=O)O[C@H]2CO[C@H]3OCC[C@H]32)cc1` (stereo partly drawn) [drawing 659 R1=OPh R2=(S)Lac-EtMor], the EC50 was more than 5000 nM.
On to `CCC(OP(=O)(COc1ccc(CC(NC(=O)OC2COC3OCCC23)C(O)CN(CC(C)C)S(=O)(=O)c2ccc(OC)cc2)cc1)Oc1ccccc1)C(=O)OC(C)(C)C` [drawing 659 R1=OPh R2=(S)Hba-tBu], for which the EC50 is less than 50 nM.
Turning to `CCOC(=O)C(C)OP(=O)(CCNc1ccc(CC(NC(=O)OC2COC3OCCC23)C(O)CN(CC(C)C)S(=O)(=O)c2ccc(OC)cc2)cc1)Oc1ccccc1` (single isomer, unassigned) [drawing 707], the EC50 is less than 50 nM.
Regarding `COc1ccc(S(=O)(=O)N(CC(C)C)C[C@@H](O)[C@H](Cc2ccc(OCP(=O)(OCOC(=O)OC(C)C)OCOC(=O)OC(C)C)cc2)NC(=O)O[C@H]2CO[C@H]3OCC[C@H]32)cc1` [drawing 651 R1=OPoc R2=OPoc], the 50% effective concentration (EC50) lay within 500 to 5000 nM.
